Measured values reported in patent US9422333B2, “HCV protease inhibitors and uses thereof” (Celgene Avilomics Research, Inc., priority 2008, dated 2016).

Biological target: HCV NS3/4A wild type (wt) (Hepatitis C virus genotype 1b (isolate BK) (HCV), UniProt P26663)
Test: Mass spectrometric analysis (MALDI-TOF) of intact protease incubated with test compound
Assay type: binding
Conditions: 10-fold excess of compound
Method: Mass spectrometric analysis of HCV wild type or HCV variant C159S in the presence of test compound is performed. 100 pmols of HCV wild type (Bioenza CA) is incubated with test compound for 1 hr and 3 hrs at 10-fold access of test compound to protein. 1 ul aliquots of the samples (total volume of 4.24 ul) are diluted with 10 ul of 0.1% TFA prior to micro C4 ZipTipping directly onto the MALDI target using Sinapinic acid as the desorption matrix (10 mg/mL in 0.1% TFA:Acetonitrile 50:50). Analyses are performed on a Shimadzu Biotech Axima TOF^2 (Shimadzu Instruments) matrix-assisted-laser desorption/ionization Time-of-Flight (MALDI-TOF) mass spectrometer. The same procedure is carried out on 100 pmols of HCV C159S mutant of HCV protease for 3 hrs at 10-fold excess of test compound to protein.
(§1) 2 ul aliquots of the samples were diluted with 10 ul of 0.1% TFA prior to micro C4 ZipTipping directly onto the MALDI target using Sinapinic acid as the desorption matrix (10 mg/ml in 0.1% TFA:Acetonitrile 50:50). For intact protein mass measurement the instrument was set in linear mode using a pulsed extraction setting of 24,500 and apomyoglobin as the standard to calibrate the instrument.
as §1, with “[…]” for “C4”, “20:80).” for “50:50).”

## CCC[C@H](NC(=O)[C@@H]1[C@H]2CCC[C@H]2CN1C(=O)[C@@H](NC(=O)[C@@H](NC(=O)c1cnccn1)C1CCCCC1)C(C)(C)C)C(=O)C(=O)NC1CC1 [telaprevir, reference compound]
1 hr incubation
  covalent modification of protein (reaction with compound, mass spectrometry): no reaction

## C=CC(=O)NC[C@H](NC(=O)[C@@H](NC(=O)c1cnccn1)C1CCCCC1)C(=O)N1C[C@@H]2CCC[C@@H]2[C@H]1C(=O)N[C@@H](CCC)C(=O)C(=O)NC1CC1 [Compound I-11, (1S,3aR,6aS)-2-((S)-3-acrylamido-2-((S)-2-cyclohexyl-2-(pyrazine-2-carboxamido)acetamido)propanoyl)-N—((S)-1-(cyclopropylamino)-1,2-dioxohexan-3-yl)octahydrocyclopenta[c]pyrrole-1-carboxamide]
3 hr incubation
  covalent modification of protein (reaction with compound, mass spectrometry): reacted significantly to produce a new species
  mass increase of new protein species versus protein with no compound: approximately 703 Da
